Reference: patent publication US11708344B2, “Flavone derivatives for the treatment and prophylaxis of hepatitis B virus disease” (Hoffmann-La Roche Inc., priority 2018, dated 2023)
Where two headings read alike, the source gives them in different places.

Tests used:
[1] = test system: HBeAg (surrogate marker for cccDNA) in HepDES19 cells; assay: Engineered HepDES19 primary screen assay (HBeAg ELISA); assay type: cell-based, HBV
Procedure, shortened: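 HepDES19 cells were induced by Tet withdrawal for 8 days, then treated with half-log compound dilutions (1% DMSO final) for 5 days at 37 °C. HBeAg was measured by ELISA as the cccDNA surrogate, viability by CCK-8, and IC50 from a 4-parameter logistic fit.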

[2] = Human microsome stability assay; assay type: in vitro ADME; settings: human liver microsomes, 1 μM test compound, 0.5 mg/mL microsomal protein, 37° C., pH 7.4, 0-30 minutes
Procedure, shortened: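 Compound (1 μM) incubated at 37 °C with human liver microsomes (0.5 mg/mL protein) in 100 mM potassium phosphate, pH 7.4, after 10 min preincubation; started with NADPH regenerating system. Sampled at 0–30 min, quenched with cold ACN; remaining parent quantified by LC-MS/MS, with no-NADPH controls.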

[3] = Hepatitis B virus, HepDES19, 120 h, read-out: IC50 (HBeAg level, HepDES19 primary screen assay), HepDES19 cells, 5 days compound incubation, HBeAg ELISA
[4] = read-out: IC50 (HBeAg level, HepDES19 primary screen assay), HepDES19 cells, 5 days compound incubation, HBeAg ELISA

| SMILES | IC50 [1, 3] | Clearance of Human microsome [2] | IC50 [1, 4] |
| --- | --- | --- | --- |
| Cc1cc(F)c(-c2cc(=O)c3cccc(Cl)c3o2)c(OCCC(=O)O)c1 [Example A021, 3-[2-(8-chloro-4-oxo-chromen-2-yl)-3-fluoro-5-methyl-phenoxy]propanoic acid] | 4.04 µM | 6.15 mL/min/kg | – |
| Cc1cc(Br)c(OC2CC(C(=O)O)C2)c(-c2cc(=O)c3cccc(Cl)c3o2)c1 (centres unmarked) [Example B009, 3-[2-bromo-6-(8-chloro-4-oxo-chromen-2-yl)-4-methyl-phenoxy]cyclobutanecarboxylic acid] | 5.98 µM | 6.19 mL/min/kg | – |
| Cc1cc(OCCO[C@H]2C[C@@H](C(=O)O)C2)c(-c2cc(=O)c3cccc(Cl)c3o2)cc1C(F)F [Example C075, Cis-3-[2-[2-(8-chloro-4-oxo-chromen-2-yl)-4-(difluoromethyl)-5-methyl-phenoxy]ethoxy]cyclobutanecarboxylic acid] | 10.9 µM | 6.15 mL/min/kg | – |
| O=c1cc(-c2ccc(F)cc2OCCO[C@H]2C[C@H](C(=O)O)C2)oc2c(Cl)cc(F)cc12 [Example C045-B, Trans-3-[2-[2-(8-chloro-6-fluoro-4-oxo-chromen-2-yl)-5-fluoro-phenoxy]ethoxy]cyclobutanecarboxylic acid] | 2.88 µM | 9.43 mL/min/kg | – |
| O=c1cc(-c2ccc(N3CCCC3)cc2OCCO[C@H]2C[C@@H](C(=O)O)C2)oc2c(Cl)cccc12 [Example C068, cis-3-[2-[2-(8-chloro-4-oxo-chromen-2-yl)-5-pyrrolidin-1-yl-phenoxy]ethoxy]cyclobutanecarboxylic acid] | 4.74 µM | 6.15 mL/min/kg | – |
| O=C(COc1cc(C(F)(F)F)ccc1-c1cc(=O)c2cccc(Cl)c2o1)NCCO [Example A086, 2-[2-(8-chloro-4-oxo-chromen-2-yl)-5-(trifluoromethyl)phenoxy]-N-(2-hydroxyethyl)acetamide] | 1 µM | 9.68 mL/min/kg | – |
| COc1cc(O[C@H]2C[C@@H](C(=O)NS(=O)(=O)C3CC3)C2)c(-c2cc(=O)c3cccc(Cl)c3o2)cc1Br [Example B056-A, Cis-3-[4-bromo-2-(8-chloro-4-oxo-chromen-2-yl)-5-methoxy-phenoxy]-N-cyclopropylsulfonyl-cyclobutanecarboxamide] | 9.44 µM | 6.48 mL/min/kg | – |
| CCOc1ccc(-c2cc(=O)c3cccc(Cl)c3o2)c(OCCO[C@H]2C[C@H](C(=O)O)C2)c1 [Example C035-B, Trans-3-[2-[2-(8-chloro-4-oxo-chromen-2-yl)-5-ethoxy-phenoxy]ethoxy]cyclobutanecarboxylic acid] | 17.9 µM | 9.78 mL/min/kg | – |
| Cc1cc(-c2cc(=O)c3cccc(Cl)c3o2)c(O[C@H]2C[C@@H](C(=O)NS(C)(=O)=O)C2)cc1Br [Example B049-A, Cis-3-[5-bromo-2-(8-chloro-4-oxo-chromen-2-yl)-4-methyl-phenoxy]-N-methylsulfonyl-cyclobutanecarboxamide] | 12.2 µM | 7.5 mL/min/kg | – |
| O=C(O)COCCOc1cc(C(F)(F)F)ccc1-c1cc(=O)c2cccc(Cl)c2o1 [Example C005, 2-[2-[2-(8-chloro-4-oxo-chromen-2-yl)-5-(trifluoromethyl)phenoxy]ethoxy]acetic acid] | 17.7 µM | 8.08 mL/min/kg | – |
| O=c1cc(-c2cc3c(cc2O[C@H]2C[C@H](C(=O)O)C2)CCO3)oc2c(Cl)cccc12 [Example B023, Trans-3-[[6-(8-chloro-4-oxo-chromen-2-yl)-2,3-dihydrobenzofuran-5-yl]oxy]cyclobutanecarboxylic acid] | 3.39 µM | 6.15 mL/min/kg | – |
| O=C(O)COc1cc(C(F)(F)F)ccc1-c1cc(=O)c2cccc(Cl)c2o1 [Example A051, 2-[2-(8-chloro-4-oxo-chromen-2-yl)-5-(trifluoromethyl)phenoxy]acetic acid] | 2.41 µM | 6.15 mL/min/kg | – |
| CCOc1cc(OCCO[C@H]2C[C@@H](C(=O)O)C2)c(-c2cc(=O)c3cccc(Cl)c3o2)cc1OCC [Example C088, Cis-3-[2-[2-(8-chloro-4-oxo-chromen-2-yl)-4,5-diethoxy-phenoxy]ethoxy]cyclobutanecarboxylic acid] | 10.3 µM | 6.15 mL/min/kg | – |
| COc1cc(OCC(=O)NS(=O)(=O)C2CC2)c(-c2cc(=O)c3cccc(Cl)c3o2)cc1OC [Example A091, 2-[2-(8-chloro-4-oxo-chromen-2-yl)-4,5-dimethoxy-phenoxy]-N-cyclopropylsulfonyl-acetamide] | 0.888 µM | 6.15 mL/min/kg | – |
| O=C(O)CCOc1cc(C(F)(F)F)ccc1-c1cc(=O)c2ccc(F)c(Cl)c2o1 [Example A031, 3-[2-(8-chloro-7-fluoro-4-oxo-chromen-2-yl)-5-(trifluoromethyl)phenoxy]propanoic acid] | 0.377 µM | 6.15 mL/min/kg | – |
| COc1cc(OCCOCC(=O)O)c(-c2cc(=O)c3cccc(Cl)c3o2)cc1OC [Example C022, 2-[2-[2-(8-chloro-4-oxo-chromen-2-yl)-4,5-dimethoxy-phenoxy]ethoxy]acetic acid] | 5.53 µM | 6.15 mL/min/kg | – |
| O=C(O)COCCOc1cc(OC(F)(F)F)ccc1-c1cc(=O)c2cccc(Cl)c2o1 [Example C023, 2-[2-[2-(8-chloro-4-oxo-chromen-2-yl)-5-(trifluoromethoxy)phenoxy]ethoxy]acetic acid] | 3.99 µM | 6.15 mL/min/kg | – |
| O=C(O)[C@@H]1CCCN1C(=O)CCOc1cc(Br)ccc1-c1cc(=O)c2cccc(Cl)c2o1 [Example A076, (2S)-1-[3-[5-bromo-2-(8-chloro-4-oxo-chromen-2-yl)phenoxy]propanoyl]pyrrolidine-2-carboxylic acid] | 14.1 µM | 6.15 mL/min/kg | – |
| O=c1cc(-c2ncc(Br)cc2O[C@H]2C[C@H](C(=O)O)C2)oc2c(Cl)cccc12 [Example B029, Trans-3-[[5-bromo-2-(8-chloro-4-oxo-chromen-2-yl)-3-pyridyl]oxy]cyclobutanecarboxylic acid] | 14.1 µM | 6.15 mL/min/kg | – |
| O=C(O)CCCOc1cc(C(F)(F)F)ccc1-c1cc(=O)c2c(O)ccc(Cl)c2o1 [Example B041, 4-[2-(8-chloro-5-hydroxy-4-oxo-chromen-2-yl)-5-(trifluoromethyl)phenoxy]butanoic acid] | 0.289 µM | 6.15 mL/min/kg | – |
| O=c1cc(-c2cc(Br)c(F)cc2OCCO[C@H]2C[C@@H](C(=O)O)C2)oc2c(Cl)cccc12 [Example C032-A, Cis-3-[2-[4-bromo-2-(8-chloro-4-oxo-chromen-2-yl)-5-fluoro-phenoxy]ethoxy]cyclobutanecarboxylic acid] | 19.2 µM | 9.6 mL/min/kg | – |
| O=c1cc(-c2cccc(F)c2OCCO[C@H]2C[C@@H](C(=O)O)C2)oc2c(Cl)cccc12 [Example C037-A, Cis-3-[2-[2-(8-chloro-4-oxo-chromen-2-yl)-6-fluoro-phenoxy]ethoxy]cyclobutanecarboxylic acid] | 0.0975 µM | 6.15 mL/min/kg | – |
| COc1cc(OCCCC(=O)O)c(-c2cc(=O)c3cccc(Cl)c3o2)cc1C [Example A060, 4-[2-(8-chloro-4-oxo-chromen-2-yl)-5-methoxy-4-methyl-phenoxy]butanoic acid] | 5.36 µM | 6.15 mL/min/kg | – |
| O=c1cc(-c2ccccc2OCCO[C@H]2C[C@H](C(=O)O)C2)oc2c(C(F)(F)F)cccc12 [Example C047-B, Trans-3-[2-[2-[4-oxo-8-(trifluoromethyl)chromen-2-yl]phenoxy]ethoxy]cyclobutanecarboxylic acid] | 14 µM | 6.15 mL/min/kg | – |
| O=c1cc(-c2ccc(F)cc2OCCO[C@H]2C[C@@H](C(=O)O)C2)oc2c(Cl)cc(F)cc12 [Example C045-A, Cis-3-[2-[2-(8-chloro-6-fluoro-4-oxo-chromen-2-yl)-5-fluoro-phenoxy]ethoxy]cyclobutanecarboxylic acid] | 2.62 µM | 6.53 mL/min/kg | – |
| O=C(O)[C@H]1CCCN1C(=O)COc1cc(C(F)(F)F)ccc1-c1cc(=O)c2cccc(Cl)c2o1 [Example A081, (2R)-1-[2-[2-(8-chloro-4-oxo-chromen-2-yl)-5-(trifluoromethyl)phenoxy]acetyl]pyrrolidine-2-carboxylic acid] | – | 6.15 mL/min/kg | 0.26 µM |
| Cc1cc(-c2cc(=O)c3cccc(Cl)c3o2)c(O[C@H]2C[C@@H](C(=O)O)N(S(=O)(=O)c3ccccc3)C2)cc1Cl [Example B084, (2S,4S)-1-(benzenesulfonyl)-4-[5-chloro-2-(8-chloro-4-oxo-chromen-2-yl)-4-methyl-phenoxy]pyrrolidine-2-carboxylic acid] | 0.533 µM | 6.15 mL/min/kg | – |
| O=C(O)C1CCCN1C(=O)COc1cc(C(F)(F)F)ccc1-c1cc(=O)c2cccc(Cl)c2o1 (stereo in doubt) [Example A082, (2S)-1-[2-[2-(8-chloro-4-oxo-chromen-2-yl)-5-(trifluoromethyl)phenoxy]acetyl]pyrrolidine-2-carboxylic acid] | – | 6.15 mL/min/kg | 1.19 µM |
